Results from US7947741B2, “Use and administration of bacterial efflux pump inhibitors” (Mpex Pharmaceuticals, Inc., priority 2004, dated 2011).
≈ marks a conversion by molar mass, not a printed value.

Assays:
[1] = cited from earlier work
[2] = test system: P. aeruginosa PAM2466 (MexAB-OprM, MexXY-OprM); assay: microbe, parasite or virus in culture; type: cell-based, Pseudomonas aeruginosa; conditions: PAM2466
Method: (§1) A set of strains that simultaneously over-expressed pairs or triplicates of pumps, e.g. PAM2302 and PAM2303 was tested. Simultaneous over-expression of efflux pumps has been recently detected in clinical strains.

[3] = test system: P. aeruginosa PAM2281 (MexAB-OprM, MexEF-OprN); assay: microbe, parasite or virus in culture; type: cell-based, Pseudomonas aeruginosa; conditions: PAM2281
Method: as §1

[4] = test system: P. aeruginosa PAM2302 (MexAB-OprM, MexCD-OprJ, MexEF-OprN); assay: microbe, parasite or virus in culture; type: cell-based, Pseudomonas aeruginosa; conditions: PAM2302
Method: as §1

[5] = test system: P. aeruginosa PAM1438 (MexAB-OprM, MexCD-OprJ); assay: microbe, parasite or virus in culture; type: cell-based, Pseudomonas aeruginosa; conditions: PAM1438
Method: as §1

[6] = test system: P. aeruginosa PAM2282 (MexAB-OprM, MexEF-OprN); assay: microbe, parasite or virus in culture; type: cell-based, Pseudomonas aeruginosa; conditions: PAM2282
Method: as §1

[7] = test system: P. aeruginosa PAM1626 (lacks all the three efflux pumps); assay: microbe, parasite or virus in culture; type: cell-based, Pseudomonas aeruginosa; conditions: for Levofloxacin MIC in the presence of inhibitor: PAM1626
[8] = isethionate salt; cited from earlier work
PAM1723 cells = assay: EtBr uptake (proton gradient disruption); type: cell-based, Pseudomonas aeruginosa; conditions: CCCP 50 μg/ml for 15 minutes, pentamidine 80 μg/ml
Method: A proton gradient is necessary for efflux pump activity. Accordingly, compounds that are capable of proton gradient disruption will appear as efflux inhibitors in accumulation assays. This possibility was tested for pentamidine. EtBr is a substrate of the MexAB-OprM efflux pump from P. aeruginosa as evident from the differential rates of its uptake in PAM 1723 and PAM 1626, MexAB-OprM overexpressing or lacking strains, respectively. CCCP is a well-known protonophore, which rapidly dissipates the proton gradient.

clinical = conditions: human, in vivo
[9] = test system: 108 recent clinical isolates of P. aeruginosa obtained from cystic fibrosis patients; assay: Susceptibility of cystic fibrosis clinical isolates (broth-micro-dilution, NCCLS); type: cell-based, Pseudomonas aeruginosa; conditions: 108 CF isolates; pentamidine 20 μg/ml
Pneumocystis carini = conditions: cited from earlier work
[10] = 24 hours after 300 mg in a jet nebulizer

## N=C(N)c1ccc(OCCCCCOc2ccc(C(=N)N)cc2)cc1 [Pentamidine, pentamidine]
[1]; [10]
  concentration in bronchial alveolar lavage fluid sediment: 705 ± 242 ng/mL
  concentration in bronchial alveolar lavage fluid supernatant: 23.2 ± 7.75 ng/mL
[1]; after 3 weeks of daily administration of 3 mg/kg
  trough plasma concentration: 61.1 ± 56.0 ng/mL
[2]
  Ciprofloxacin MIC w/pentamidine at 20 μg/ml: 0.06 µg/mL
  Levofloxacin MIC w/pentamidine at 20 μg/ml: 0.125 µg/mL
[3]
  Ciprofloxacin MIC w/pentamidine at 20 μg/ml: 0.25 µg/mL
  Levofloxacin MIC w/pentamidine at 20 μg/ml: 0.25 µg/mL
[4]
  Ciprofloxacin MIC w/pentamidine at 20 μg/ml: 0.25 µg/mL
  Levofloxacin MIC w/pentamidine at 20 μg/ml: 0.25 µg/mL
[5]
  Ciprofloxacin MIC w/pentamidine at 20 μg/ml: 0.25 µg/mL
  Levofloxacin MIC w/pentamidine at 20 μg/ml: 0.25 µg/mL
[6]
  Ciprofloxacin MIC w/pentamidine at 20 μg/ml: 0.125 µg/mL
  Levofloxacin MIC w/pentamidine at 20 μg/ml: 0.25 µg/mL
[7]; inhibitor 1.25 μg/ml
  Levofloxacin MIC in the presence of inhibitor: 0.007 µg/mL
[7]; inhibitor 2.5 μg/ml
  Levofloxacin MIC in the presence of inhibitor: 0.007 µg/mL
[7]; inhibitor 5 μg/ml
  Levofloxacin MIC in the presence of inhibitor: 0.007 µg/mL
[7]; PAM1626 lacking efflux pumps
  decrease in levofloxacin MIC: Almost no decrease
[7]; Pseudomonas aeruginosa, read-out: MIC* (MIC for the efflux pump inhibitor)
  MIC: 10 µg/mL (≈ 29.4 µM)
[8]
  solubility: soluble in water and glycerin and insoluble in ether, acetone, and chloroform
PAM1723 cells
  EtBr uptake: did not result in increased EtBr uptake
clinical
  concentration at 7 day: ≤ 110 ng/mL
clinical; 70 mg/4 ml, T1/2 (a), CF sputum, Aerogen Clinical, high dose, a phase 0-8 hours, Mean
  half-life: 2.2 h
clinical; 70 mg/4 ml, T1/2 (β), CF sputum, Aerogen Clinical, high dose, β phase, Mean
  half-life: 24.4 h
clinical; 300 mg/6 ml, T1/2 (a), CF sputum, Respirgard II, high dose, a phase 0-8 hours, Mean
  half-life: 2.6 h
clinical; 300 mg/6 ml, T1/2 (β), CF sputum, Respirgard II, high dose, β phase, Mean
  half-life: 26.7 h
clinical; AUC (0 to 168)
  AUC(0-t): 84000 ng·h/mL
clinical; AUC (0 to infinity)
  AUC(0-inf): 84000 ng·h/mL
clinical; AUC (0 to last non-BLQ)
  AUC(0-t): 83000 ng·h/mL
clinical; Tmax (0 to 168)
  Tmax: 1.8 h
clinical; α phase half-life for elimination from sputum
  half-life: 2.2 to 2.6 h
[9]
  decrease of MIC50 of levofloxacin and ciprofloxacin: 8 fold
  decrease of MIC90 of levofloxacin and ciprofloxacin: 2 fold
Pneumocystis carini
  In vitro inhibitory activity: 0.3 µg/mL
